Laboratory results taken from patent publication US10689327B2, “Prodrug amino acid derivative” (TAISHO PHARMACEUTICALS CO., LTD., priority 2016, dated 2020).

What was measured:
[1] = biological target: human metabotropic glutamate receptor mGluR2 (Homo sapiens (Human), UniProt Q14416); experiment: [35S]GTPγS binding test, mGluR2; format: biochemical; settings: inhibition of glutamate (20 μM)-stimulated [35S]GTPγS specific binding, CHO cell membranes
Protocol: (§1) Test 1 [^35S]GTPγS binding test
(§2) CHO cells stably expressing human metabotropic glutamate receptors mGluR2 and mGluR3 were cultured at 37° C. under 5% CO2 using a Dulbecco's modified Eagle medium [1% proline, 1 mM sodium pyruvate, 1 mM succinic acid, 1 mM disodium succinate, 100 units/mL penicillin, 100 μg/mL streptomycin, 400 (mGluR2) or 300 (mGluR3) μg/mL hygromycin B, 2 mM L-glutamine (added just before use)] containing 10% dialyzed fetal bovine serum. The cells in a confluent state were washed with PBS(−), then dissociated using a cell scraper, and centrifuged at 1000 rpm for 5 minutes at 4° C. to recover the cells. The obtained pellet was suspended in a 20 mM HEPES buffer (pH 7.4) (mGluR2) or 20 mM HEPES buffer containing 1 mM EDTA (pH 7.4) (mGluR3), and the suspension was homogenized in a Teflon® homogenizer and then centrifuged at 48,000×g for 20 minutes at 4° C. to obtain a pellet again. The obtained pellet was subjected to two additional cycles of washing and centrifugation and then homogenized with the buffer described above to obtain a crude membrane fraction. The crude membrane fraction was diluted with a buffer for a binding test (final concentration: 20 mM HEPES, 100 mM NaCl, 10 mM MgCl2, 10 μM GDP, […], 0.1% BSA) (mGluR2) or (final concentration: 20 mM HEPES, 1 mM EDTA, 100 mM NaCl, 10 mM MgCl2, 10 μM GDP, 10 μg/mL saponin, 0.1% BSA) (mGluR3). To the crude membrane fraction containing 10 μg of membrane proteins/assay, Compounds (II)-1 to (II)-15 were each added, and the mixture was incubated at 30° C. for 20 minutes. Then, glutamate (final concentration: 20 (mGluR2) or 1 (mGluR3) μM) and [^35S]GTPγS (final concentration: 0.15 nM) were added thereto, and the mixture was incubated at 30° C. for 1 hour. The solution thus incubated was filtered by suction onto Whatman GF/C filter, and the filter was washed with 1000 μL of an ice-cooled 20 mM HEPES buffer (pH 7.4) (mGluR2) or 20 mM HEPES buffer containing 1 mM EDTA (pH 7.4) (mGluR3). A scintillation cocktail was added to the obtained filter, and the membrane binding radioactivity was measured using a liquid scintillation counter. The residual radioactivity in the absence of glutamate was defined as nonspecific binding, and the difference from the residual radioactivity in the presence of glutamate was defined as specific binding. From the percent inhibition of specific binding at varying concentrations of Compounds (II)-1 to (II)-15, an inhibition curve was obtained using nonlinear analysis. The concentrations at which Compounds (II)-1 to (II)-15 inhibited 50% of specific binding (IC50) were calculated from the inhibition curve.

[2] = biological target: human metabotropic glutamate receptor mGluR3 (Homo sapiens (Human), UniProt Q14832); experiment: [35S]GTPγS binding test, mGluR3; format: biochemical; settings: inhibition of glutamate (1 μM)-stimulated [35S]GTPγS specific binding, CHO cell membranes
Chain of human metabotropic glutamate receptor mGluR3 (Q14832 23-879): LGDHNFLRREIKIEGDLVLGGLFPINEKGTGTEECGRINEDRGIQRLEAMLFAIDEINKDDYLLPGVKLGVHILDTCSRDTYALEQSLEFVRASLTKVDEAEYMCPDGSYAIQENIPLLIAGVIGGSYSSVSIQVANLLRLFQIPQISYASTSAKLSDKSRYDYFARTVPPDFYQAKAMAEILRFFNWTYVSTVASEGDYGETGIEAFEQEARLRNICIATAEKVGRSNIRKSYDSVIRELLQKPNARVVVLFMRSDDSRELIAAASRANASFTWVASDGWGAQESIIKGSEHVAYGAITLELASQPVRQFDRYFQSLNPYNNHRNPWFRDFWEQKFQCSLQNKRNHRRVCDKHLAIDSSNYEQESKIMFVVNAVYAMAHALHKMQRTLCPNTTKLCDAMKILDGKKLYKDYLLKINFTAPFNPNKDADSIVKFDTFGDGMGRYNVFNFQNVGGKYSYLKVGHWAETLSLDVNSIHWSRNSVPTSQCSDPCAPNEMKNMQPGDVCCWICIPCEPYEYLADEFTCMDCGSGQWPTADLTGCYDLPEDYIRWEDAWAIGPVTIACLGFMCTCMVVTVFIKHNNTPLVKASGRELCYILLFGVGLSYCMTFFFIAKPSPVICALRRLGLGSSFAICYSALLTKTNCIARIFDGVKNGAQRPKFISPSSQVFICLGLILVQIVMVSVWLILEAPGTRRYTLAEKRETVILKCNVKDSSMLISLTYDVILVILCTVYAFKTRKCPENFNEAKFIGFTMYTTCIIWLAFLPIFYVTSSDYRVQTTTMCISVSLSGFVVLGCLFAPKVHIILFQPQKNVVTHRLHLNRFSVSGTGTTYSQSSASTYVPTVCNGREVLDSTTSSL
Protocol: as §1, §2

mGlu2 receptor = mGlu2 receptor (Homo sapiens (Human), UniProt Q14416); settings: reported in literature; cited from earlier work
Chain of mGlu2 receptor (Q14416 19-872): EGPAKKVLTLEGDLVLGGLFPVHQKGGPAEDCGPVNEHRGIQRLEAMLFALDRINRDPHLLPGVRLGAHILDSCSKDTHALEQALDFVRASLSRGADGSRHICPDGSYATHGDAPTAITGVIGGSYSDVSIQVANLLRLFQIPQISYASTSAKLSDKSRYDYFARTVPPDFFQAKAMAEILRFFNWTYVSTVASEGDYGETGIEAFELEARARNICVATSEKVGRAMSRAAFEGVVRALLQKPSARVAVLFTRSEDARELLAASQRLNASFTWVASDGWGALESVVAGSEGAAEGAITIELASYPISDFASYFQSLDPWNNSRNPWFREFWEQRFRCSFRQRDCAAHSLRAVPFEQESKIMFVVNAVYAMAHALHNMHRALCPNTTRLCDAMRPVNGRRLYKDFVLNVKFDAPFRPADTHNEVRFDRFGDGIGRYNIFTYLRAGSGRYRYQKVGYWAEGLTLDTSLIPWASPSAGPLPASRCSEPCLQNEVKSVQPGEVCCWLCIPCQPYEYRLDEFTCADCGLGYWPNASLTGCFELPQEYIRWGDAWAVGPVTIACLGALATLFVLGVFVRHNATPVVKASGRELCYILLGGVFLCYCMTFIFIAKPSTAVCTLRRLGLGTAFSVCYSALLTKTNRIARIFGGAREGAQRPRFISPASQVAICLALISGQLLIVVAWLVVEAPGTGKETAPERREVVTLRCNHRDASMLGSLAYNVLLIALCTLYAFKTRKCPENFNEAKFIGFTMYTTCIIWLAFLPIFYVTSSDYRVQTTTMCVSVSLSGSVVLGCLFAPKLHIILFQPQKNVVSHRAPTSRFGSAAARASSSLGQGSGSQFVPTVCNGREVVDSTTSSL

mGlu3 receptor = mGlu3 receptor (Homo sapiens (Human), UniProt Q14832); settings: reported in literature; cited from earlier work
Chain of mGlu3 receptor (Q14832 23-879): as the sequence (Q14832 23-879) above

rats = settings: 1 mg/kg; cited from earlier work
mice = settings: cited from earlier work

Chain of human metabotropic glutamate receptor mGluR2 (Q14416 19-872): as the sequence (Q14416 19-872) above

Structure (SMILES) | IC50 [1] | IC50 [2] | antagonistic activity (mGlu2 receptor) (mGlu2 receptor) | antagonistic activity (mGlu3 receptor) (mGlu3 receptor) | immobility time in the forced swimming test (rats) | immobility time in the tail suspension test (mice)
N[C@]1(C(=O)O)[C@H]2[C@@H](C[C@H]1OCc1cc[nH]c(=O)c1)[C@]2(F)C(=O)O [Compound (II)-13, (1R,2R,3R,5R,6R)-2-amino-6-fluoro-3-[(2-oxo-1,2-dihycropyridin-4-yl)methoxy]bicyclo[3.1.0]hexane-2.6-dicarboxylic acid] | 0.0373 µM | 0.00435 µM |  |  |  | 
N[C@]1(C(=O)O)[C@H]2[C@@H](C[C@H]1OCc1ccc(C(F)(F)F)cc1)[C@]2(F)C(=O)O [Compound (II)-5, (1R,2R,3R,5R,6R)-2-amino-6-fluoro-3-{[4-(triflouromethyl)phenyl]methoxy}bicyclo[3.1.0]hexane-2,6-dicarboxylic acid] | 0.0237 µM | 0.279 µM |  |  |  | 
N[C@]1(C(=O)O)[C@H]2[C@@H](C[C@H]1OCc1ccc(F)c(F)c1)[C@]2(F)C(=O)O [Compound (II)-2, (1R,2R,3R,5R,6R)-2-amino-3-[(3,4-difluorophenyl)methoxy]-6-fluorobicyclo[3.1.0]hexane-2,6-dicarboxylic acid] | 0.0188 µM | 0.0148 µM | ≤ 500 nM |  |  | 
N[C@]1(C(=O)O)[C@H]2[C@@H](C[C@H]1OCc1ccc(F)cc1)[C@]2(F)C(=O)O [Compound (II)-1, (1R,2R,3R,5R,6R)-2-amino-6-fluoro-3-[(4-fluorophenyl)methoxy]bicyclo[3.1.0]hexane-2,6-dicarboxylic acid] | 0.0361 µM | 0.0364 µM | ≤ 500 nM |  |  | 
N[C@]1(C(=O)O)[C@H]2[C@@H](C[C@H]1OCc1cccc(Cl)n1)[C@]2(F)C(=O)O [Compound (II)-8, (1R,2R,3R,5R,6R)-2-amino-3-[(6-chloropyridin-2-yl)methoxy]-6-fluorobicyclo[3.0.1]hexane-2,6-dicarboxylic acid] | 0.0186 µM | 0.0323 µM |  |  |  | 
N[C@]1(C(=O)O)[C@H]2[C@@H](C[C@H]1OCc1ccc(F)cc1)[C@@H]2C(=O)O [Compound (II)-15, (1S,2R,3R,5R,6S)-2-amino-3-[(4-fluorophenyl)methoxy]bicyclo[3.1.0]hexane-2,6-dicarboxylic acid] | 0.0327 µM | 0.0605 µM |  |  |  | 
COc1cc([C@@H](C)O[C@@H]2C[C@@H]3[C@H]([C@]2(N)C(=O)O)[C@@]3(F)C(=O)O)ccc1F [Compound (II)-4, (1R,2R,3R,5R,6R)-2-amino-6-fluoro-3-[(1R)-1-(4-fluoro-3-methoxyphenyl)ethoxy]bicyclo[3.1.0]hexane-2,6-dicarboxylic acid] | 0.00522 µM | 0.00504 µM |  |  |  | 
N[C@]1(C(=O)O)[C@H]2[C@@H](C[C@H]1OCc1cccc(F)c1)[C@]2(F)C(=O)O [Compound (II)-6, (1R,2R,3R,5R,6R)-2-amino-6-fluoro-3-[(3-fluorophenyl)methoxy]bicyclo[3.1.0]hexane-2.6-dicarboxylic acid] | 0.0278 µM | 0.0755 µM |  |  |  | 
CCCO[C@@H]1C[C@@H]2[C@H]([C@]1(N)C(=O)O)[C@@]2(F)C(=O)O [Compound (II)-3, (1R,2R,3R,5R,6R)-2-amino-6-fluoro-3-propoxybicyclo[3.1.0]hexane-2,6-dicarboxylic acid] | 0.0751 µM | 0.321 µM | ≤ 500 nM |  |  | 
N[C@]1(C(=O)O)[C@H]2[C@@H](C[C@H]1OCc1ccc(Cl)nc1)[C@]2(F)C(=O)O [Compound (II)-10, (1R,2R,3R,5R,6R)-2-amino-3-[(6-chloropyridin-3-yl)methoxy]-6-fluorobicyclo[3.1.0]hexane-2,6-dicarboxylic acid] | 0.0497 µM | 0.0506 µM |  |  |  | 
CC(C)CCO[C@@H]1C[C@@H]2[C@H]([C@]1(N)C(=O)O)[C@@]2(F)C(=O)O [Compound (II)-7, (1R,2R,3R,5R,6R)-2-amino-6-fluoro-3-(3-methylbutoxy)bicyclo[3.1.0]hexane-2,6-dicarboxylic acid] | 0.0988 µM | 0.173 µM |  |  |  | 
N[C@]1(C(=O)O)[C@H]2[C@@H](C[C@H]1OCc1ccc(Cl)c(Cl)c1)[C@]2(F)C(=O)O [MGS0039] |  |  | 20 nM | 24 nM | sufficient to suppress immobility time | shortens immobility time
Cc1ccc(CO[C@@H]2C[C@@H]3[C@H]([C@]2(N)C(=O)O)[C@@]3(F)C(=O)O)cc1 [Compound (II)-12, (1R,2R,3R,5R,6R)-2-amino-6-fluoro-3-[(4-methylphenyl)methoxy]bicyclo[3.1.0]hexane-2.6-dicarboxylic acid] | 0.0246 µM | 0.0544 µM |  |  |  | 
N[C@]1(C(=O)O)[C@H]2[C@@H](C[C@H]1OCc1ccc(F)c(F)c1)[C@@H]2C(=O)O [Compound (II)-14, (1S,2R,3R,5R,6S)-2-amino-3-[(3,4-difluorophenyl)methoxy]bicyclo[3.1.0]hexane-2,6-dicarboxylic acid] | 0.0301 µM | 0.0152 µM |  |  |  | 
N[C@]1(C(=O)O)[C@H]2[C@@H](C[C@H]1OCc1ccc(Cl)cn1)[C@]2(F)C(=O)O [Compound (II)-11, (1R,2R,3R,5R,6R)-2-amino-3-[(5-chloropyridin-2-yl)methoxy]-6-fluorobicyclo[3.1.0]hexane-2,6-dicarboxylic acid] | 0.0284 µM | 0.0124 µM |  |  |  | 
N[C@]1(C(=O)O)[C@H]2[C@@H](C[C@H]1OC1CCCC1)[C@]2(F)C(=O)O [Compound (II)-9, (1R,2R,3R,5R,6R)-2-amino-3-(cyclopentyloxy)-6-fluorobicyclo[3.1.0]hexane-2,6-dicarboxylic acid] | 0.0622 µM | 0.0976 µM |  |  |  | 
